Among the data in publication doi:10.1101/116368v1 (biorxiv, 2017) are Kd values, retold here.

In general, Kd refers to a measure of binding affinity in units of concentration. Low readings indicate higher affinity, high ones lower affinity.

Each structure is given as a SMILES string.

The assay deals with T1, STARD1 (StAR), STARD1^S195E, residues 66-285 (Homo sapiens, UniProt P49675, S195E).
T1 sequence (P49675 66-285 S195E): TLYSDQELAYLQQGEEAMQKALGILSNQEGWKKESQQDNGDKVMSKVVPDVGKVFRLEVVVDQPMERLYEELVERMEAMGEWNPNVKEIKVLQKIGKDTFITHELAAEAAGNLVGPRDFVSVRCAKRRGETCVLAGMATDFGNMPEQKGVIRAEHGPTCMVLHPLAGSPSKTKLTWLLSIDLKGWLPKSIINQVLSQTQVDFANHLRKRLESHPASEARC
Nature of the assay: NBD fluorescence titration, quadratic fit. Type of assay: binding.

For the compound `CC(Nc1ccc([N+](=O)[O-])c2nonc12)[C@H]1CC[C@H]2[C@@H]3CC=C4C[C@@H](O)CC[C@]4(C)[C@H]3CC[C@]12C` (some centres unmarked) [20NP, 20-((NBDamino)-pregn-5-en-3-ol], the Kd turned out to be 26 ± 8 nM.
As for `CC(C)CCC[C@@H](C)[C@H]1CC[C@H]2[C@@H]3CCC4CC(Nc5ccc([N+](=O)[O-])c6nonc56)CC[C@]4(C)[C@H]3CC[C@]12C` (some centres unmarked) [3NC, 3-(NBDamino)-cholestane], the affinity, expressed as Kd, was 302 ± 29 nM.
